Consider 2 molecules from patent publication US20250057866A1, “A SYNERGISTIC PHARMACEUTICAL COMPOSITION AND ITS ANTIVIRAL USE” (priority 2022, published 2025).

The assay deals with virus (0.01 MOI) in Vero-E6 cells. Kind of assay: In vitro antiviral activity EC50 assay (CCK8, 48 h, 0.01 MOI virus in Vero-E6 cells). It is filed as cell-based. The settings on record: combination mol./mol.=1/1, combined total concentration. As to the method:
• 1) Vero-E6 cells were digested and passaged. The cells were adjusted to a density of 1×10^5 cells/mL with DMEM containing 10% FBS, then seeded in a 96-well plate (100 μl/well), and incubated in a 35° C., 6% CO2 incubator for 20 h; • 2) Compound 1 and Compound 2 (mol./mol.=1/1) were diluted with DMEM containing 1% FBS to provide compositions with combined total concentrations (Compound 1+Compound 2) of 200 μM, 60 μM, 20 μM, 6 μM, 2 μM, 0.6 μM, 0.2 μM, 0.06 μM, and 0.02 μM; • 3) The culture medium in each well was removed, and the 96-well plate was marked on its lid, washed three times with 1×PBS, and 100 μL of dilutions of the compositions prepared above was added to each well, followed by 100 μL of a 0.01 multiplicity of infection (MOI) virus solution, so as to obtain final combined total concentrations of the compounds (Compound 1+Compound 2) at 100 μM, 30 μM, 10 μM, 3 μM, 1 μM, 0.3 μM, 0.1 μM, 0.03 μM, 0.01 μM. The 96-well plate, including a cell control group and a virus control group, was then incubated in a 35° C., 6% CO2 incubator; • 4) After 48 h, the cell viability was tested with a CCK8 kit.

Like-named read-outs stand apart in the source and are kept apart here.

The EC50 is the concentration giving half of the maximal effect. In the case of `[2H]C(OC(=O)C(C)C)[C@H]1O[C@@H](n2ccc(NO)nc2=O)[C@H](O)[C@@H]1O` (stereo partly drawn) [Compound 2, ((2R, 3S, 4R, 5R)-3,4-dihydroxy-5-(4-(hydroxylamino)-2-oxopyrimidin-1 (2H)-yl)tetrahydrofuran-2-yl) deuterated methyl isobutyl ester], the EC50 was determined as 1560 nM (Vero C1008, 48 h) and 1720 ± 585 nM (read-out: EC50).
With `[2H]C1([2H])C[C@@H](C[C@@H](C#N)NC(=O)[C@@H]2[C@@H]3[C@H](CN2C(=O)[C@@H](NC(=O)C(F)(F)F)C(C)(C)C)C3(C)C)C(=O)N1` [Compound 1], the EC50 is, setting by setting: (Vero C1008, 48 h) 1720 nM; (read-out: EC50) 1560 ± 576 nM.
